system: HT-29 cells; test: HT29 Cells 0FBS Assay In Vitro (TNF-α/SMAC mimetic/zVAD-FMK induced necroptosis, CellTiter-Glo cell viability); type: cell-based; details: Homo sapiens, HT-29, 20 h, read-out: Cell activity (EC50) of Compounds 117-281
How it was run: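 Viability was measured by ATP luminescence (CellTiter-Glo) after 20 h at 37° C of compound exposure in 10-point, 1:3 dilutions. Necroptosis in FBS-free HT-29 cultures was driven by a TNF-α (10 ng/ml), SMAC mimetic (6 μM) and zVAD-FMK (10 μM) cocktail. EC50 values are geometric means from duplicate curves.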

SMILES	EC50
Cc1nn(CCO)c(C)c1-c1cc(OC2CN(C(=O)N3N=CC[C@H]3c3cc(F)cc(F)c3)C2)c(F)cn1 [compound 117, (S)-(5-(3,5-difluorophenyl)-4,5-dihydro-1H-pyrazol-1-yl)(3-((5-fluoro-2-(1-(2-hydroxyethyl)-3,5-dimethyl-1H-pyrazol-4-yl)pyridin-4-yl)oxy)azetidin-1-yl)methanone]	0.1 to 100 nM

same assay, conditions: Homo sapiens; HT-29 cells, FBS free medium, TNF-α (10 ng/ml), SMAC mimetic (6 uM), zVAD-FMK (10 μM), 20 hours; geometric mean EC50; read-out: Cell activity (EC50) of Compounds 1-116

SMILES	EC50
Cc1nn(CC(=O)N(C)C)c(C)c1-c1ncc(F)c(OC2CN(C(=O)N3N=CC[C@H]3c3cc(F)cc(F)c3)C2)n1 [compound 100, (S)-2-(4-(4-((1-(5-(3,5-difluorophenyl)-4,5-dihydro-1H-pyrazole-1-carbonyl)azetidin-3-yl)oxy)-5-fluoropyrimidin-2-yl)-3,5-dimethyl-1H-pyrazol-1-yl)-N,N-dimethylacetamide]	0.1 to 100 nM
Cc1c(N)nn(C)c1-c1cc(OC2CN(C(=O)N3N=CC[C@H]3c3cc(F)cc(F)c3)C2)c(F)cn1 [compound 101, (S)-(3-((2-(3-amino-1,4-dimethyl-11H-pyrazol-5-yl)-5-fluoropyridin-4-yl)oxy)azetidin-1-yl)(5-(3,5-difluorophenyl)-4,5-dihydro-1H-pyrazol-1-yl)methanone]	0.1 to 100 nM
Cc1cccn1-c1ncc(F)c(OC2CN(C(=O)N3N=CC[C@H]3c3cc(F)cc(F)c3)C2)n1 [compound 102, (S)-(5-(3,5-difluorophenyl)-4,5-dihydro-1H-pyrazol-1-yl)(3-((5-fluoro-2-(2-methyl-1H-pyrrol-1-yl)pyrimidin-4-yl)oxy)azetidin-1-yl)methanone]	0.1 to 100 nM
Cc1nc(C)n(-c2ncc(F)c(OC3CN(C(=O)N4N=CC[C@H]4c4cc(F)cc(F)c4)C3)n2)n1 [compound 103, (S)-(5-(3,5-difluorophenyl)-4,5-dihydro-1H-pyrazol-1-yl)(3-((2-(3,5-dimethyl-1H-1,2,4-triazol-1-yl)-5-fluoropyrimidin-4-yl)oxy)azetidin-1-yl)methanone]	0.1 to 100 nM
Cc1nc(C)n(-c2cc(OC3CN(C(=O)N4N=CC[C@H]4c4cc(F)cc(F)c4)C3)c(F)cn2)n1 [compound 104, (S)-(5-(3,5-difluorophenyl)-4,5-dihydro-1H-pyrazol-1-yl)(3-((2-(3,5-dimethyl-1H-1,2,4-triazol-1-yl)-5-fluoropyridin-4-yl)oxy)azetidin-1-yl)methanone]	0.1 to 100 nM
Cc1nccn1-c1ncc(F)c(OC2CN(C(=O)N3N=CC[C@H]3c3cc(F)cc(F)c3)C2)n1 [compound 105, (S)-(5-(3,5-difluorophenyl)-4,5-dihydro-1H-pyrazol-1-yl)(3-((5-fluoro-2-(2-methyl-1H-imidazol-1-yl)pyrimidin-4-yl)oxy)azetidin-1-yl)methanone]	0.1 to 100 nM
N#Cc1cccn1-c1ncc(F)c(OC2CN(C(=O)N3N=CC[C@H]3c3cc(F)cc(F)c3)C2)n1 [compound 106, (S)-1-(4-((1-(5-(3,5-difluorophenyl)-4,5-dihydro-1H-pyrazole-1-carbonyl)azetidin-3-yl)oxy)-5-fluoropyrimidin-2-yl)-1H-pyrrole-2-carbonitrile]	0.1 to 100 nM
NC(=O)c1cccn1-c1ncc(F)c(OC2CN(C(=O)N3N=CC[C@H]3c3cc(F)cc(F)c3)C2)n1 [compound 107, (S)-1-(4-((1-(5-(3,5-difluorophenyl)-4,5-dihydro-1H-pyrazole-1-carbonyl)azetidin-3-yl)oxy)-5-fluoropyrimidin-2-yl)-1H-pyrrole-2-carboxamide]	0.1 to 100 nM
Cc1nn(-c2cc(OC3CN(C(=O)N4N=CC[C@H]4c4cc(F)cc(F)c4)C3)c(F)cn2)c(C)c1[N+](=O)[O-] [compound 108, (S)-(5-(3,5-difluorophenyl)-4,5-dihydro-1H-pyrazol-1-yl)(3-((2-(3,5-dimethyl-4-nitro-1H-pyrazol-1-yl)-5-fluoropyridin-4-yl)oxy)azetidin-1-yl)methanone]	0.1 to 100 nM
Cc1nn(-c2cc(OC3CN(C(=O)N4N=CC[C@H]4c4cc(F)cc(F)c4)C3)c(F)cn2)c(C)c1N [compound 109, (S)-(3-((2-(4-amino-3,5-dimethyl-11H-pyrazol-1-yl)-5-fluoropyridin-4-yl)oxy)azetidin-1-yl)(5-(3,5-difluorophenyl)-4,5-dihydro-1H-pyrazol-1-yl)methanone]	0.1 to 100 nM
Cc1nn(-c2cc(OC3CN(C(=O)N4N=CC[C@H]4c4cc(F)cc(F)c4)C3)c(F)cn2)c(C)c1C(N)=O [compound 110, (S)-1-(4-((1-(5-(3,5-difluorophenyl)-4,5-dihydro-1H-pyrazole-1-carbonyl)azetidin-3-yl)oxy)-5-fluoropyridin-2-yl)-3,5-dimethyl-1H-pyrazole-4-carboxamide]	0.1 to 100 nM
Cn1ncc(C#N)c1-c1ccc(F)c(OC2CN(C(=O)N3N=CCC3c3cc(F)cc(F)c3)C2)n1 (stereo not drawn) [compound 111, 5-(6-((1-(5-(3,5-difluorophenyl)-4,5-dihydro-1H-pyrazole-1-carbonyl)azetidin-3-yl)oxy)-5-fluoropyridin-2-yl)-1-methyl-11H-pyrazole-4-carbonitrile]	0.1 to 100 nM
Cc1cnn(C)c1-c1ccc(F)c(OC2CN(C(=O)N3N=CC[C@H]3c3cc(F)cc(F)c3)C2)c1 [compound 112, (S)-(5-(3,5-difluorophenyl)-4,5-dihydro-1H-pyrazol-1-yl)(3-(5-(1,4-dimethyl-1H-pyrazol-5-yl)-2-fluorophenoxy)azetidin-1-yl)methanone]	0.1 to 100 nM
Cc1n[nH]c(C)c1-c1ccc(F)c(OC2CN(C(=O)N3N=CC[C@H]3c3cc(F)cc(F)c3)C2)c1 [compound 113, (S)-(5-(3,5-difluorophenyl)-4,5-dihydro-1H-pyrazol-1-yl)(3-(5-(3,5-dimethyl-1H-pyrazol-4-yl)-2-fluorophenoxy)azetidin-1-yl)methanone]	0.1 to 100 nM
Cn1ncc(C#N)c1-c1ccc(F)c(OC2CN(C(=O)N3N=CCC3c3cc(F)cc(F)c3)C2)c1 (stereo not drawn) [compound 114]	0.1 to 100 nM
Cn1ncc(C(N)=O)c1-c1ccc(F)c(OC2CN(C(=O)N3N=CCC3c3cc(F)cc(F)c3)C2)c1 (stereo not drawn) [compound 115]	0.1 to 100 nM
Cc1nc(C)n(-c2ccc(F)c(OC3CN(C(=O)N4N=CCC4c4cc(F)cc(F)c4)C3)c2)n1 (stereo not drawn) [compound 116]	0.1 to 100 nM

same assay, conditions: Homo sapiens; HT-29 cells, FBS free medium, TNF-α (10 ng/ml), SMAC mimetic (6 uM), zVAD-FMK (10 μM), 20 hours; geometric mean EC50; read-out: Cell activity (EC50) of Compounds 117-281

SMILES	EC50
COC(=O)Cn1nc(C)c(-c2cc(OC3CN(C(=O)N4N=CC[C@H]4c4cc(F)cc(F)c4)C3)c(F)cn2)c1C [compound 118, methyl (S)-2-(4-(4-((1-(5-(3,5-difluorophenyl)-4,5-dihydro-1H-pyrazole-1-carbonyl)azetidin-3-yl)oxy)-5-fluoropyridin-2-yl)-3,5-dimethyl-1H-pyrazol-1-yl)acetate]	1000 to 10000 nM
CN(C)CCNc1cnn(C)c1-c1cc(OC2CN(C(=O)N3N=CC[C@H]3c3cc(F)cc(F)c3)C2)c(F)cn1 [compound 119, (S)-(5-(3,5-difluorophenyl)-4,5-dihydro-1H-pyrazol-1-yl)(3-((2-(4-((2-(dimethylamino)ethyl)amino)-1-methyl-1H-pyrazol-5-yl)-5-fluoropyridin-4-yl)oxy)azetidin-1-yl)methanone]	100 to 1000 nM
Cn1ncc(NCCN2CCOCC2)c1-c1cc(OC2CN(C(=O)N3N=CC[C@H]3c3cc(F)cc(F)c3)C2)c(F)cn1 [compound 120, (S)-(5-(3,5-difluorophenyl)-4,5-dihydro-1H-pyrazol-1-yl)(3-((5-fluoro-2-(1-methyl-4-((2-morpholinoethyl)amino)-1H-pyrazol-5-yl)pyridin-4-yl)oxy)azetidin-1-yl)methanone]	0.1 to 100 nM
COCC(=O)Nc1cnn(C)c1-c1cc(OC2CN(C(=O)N3N=CC[C@H]3c3cc(F)cc(F)c3)C2)c(F)cn1 [compound 121, (S)—N-(5-(4-((1-(5-(3,5-difluorophenyl)-4,5-dihydro-1H-pyrazole-1-carbonyl)azetidin-3-yl)oxy)-5-fluoropyridin-2-yl)-1-methyl-1H-pyrazol-4-yl)-2-methoxyacetamide]	0.1 to 100 nM
CN(C)CC(=O)Nc1cnn(C)c1-c1cc(OC2CN(C(=O)N3N=CC[C@H]3c3cc(F)cc(F)c3)C2)c(F)cn1 [compound 122, (S)—N-(5-(4-((1-(5-(3,5-difluorophenyl)-4,5-dihydro-1H-pyrazole-1-carbonyl)azetidin-3-yl)oxy)-5-fluoropyridin-2-yl)-1-methyl-1H-pyrazol-4-yl)-2-(dimethylamino)acetamide]	0.1 to 100 nM
CN1CCN(CC(=O)Nc2cnn(C)c2-c2cc(OC3CN(C(=O)N4N=CC[C@H]4c4cc(F)cc(F)c4)C3)c(F)cn2)CC1 [compound 123, (S)—N-(5-(4-((1-(5-(3,5-difluorophenyl)-4,5-dihydro-1H-pyrazole-1-carbonyl)azetidin-3-yl)oxy)-5-fluoropyridin-2-yl)-1-methyl-1H-pyrazol-4-yl)-2-(4-methylpiperazin-1-yl)acetamide]	100 to 1000 nM
CCc1nn(-c2cc(OC3CN(C(=O)N4N=CC[C@H]4c4cc(F)cc(F)c4)C3)c(F)cn2)c(C)c1C#N [compound 124, (S)-1-(4-((1-(5-(3,5-difluorophenyl)-4,5-dihydro-1H-pyrazole-1-carbonyl)azetidin-3-yl)oxy)-5-fluoropyridin-2-yl)-3-ethyl-5-methyl-1H-pyrazole-4-carbonitrile]	0.1 to 100 nM
CNc1nn(C)c(-c2cc(OC3CN(C(=O)N4N=CC[C@H]4c4cc(F)cc(F)c4)C3)c(F)cn2)c1C [compound 125, (S)-(5-(3,5-difluorophenyl)-4,5-dihydro-1H-pyrazol-1-yl)(3-((2-(1,4-dimethyl-3-(methylamino)-1H-pyrazol-5-yl)-5-fluoropyridin-4-yl)oxy)azetidin-1-yl)methanone]	0.1 to 100 nM
Cc1cn[nH]c1-c1cc(OC2CN(C(=O)N3N=CC[C@H]3c3cc(F)cc(F)c3)C2)c(F)cn1 [compound 126, (S)-(5-(3,5-difluorophenyl)-4,5-dihydro-1H-pyrazol-1-yl)(3-((5-fluoro-2-(4-methyl-1H-pyrazol-5-yl)pyridin-4-yl)oxy)azetidin-1-yl)methanone]	0.1 to 100 nM
